As a reminder, the EC50 is the concentration needed to bring the measured effect to its halfway point.

One test deals with T1, TLR7 (Homo sapiens, UniProt Q9NYK1).
T1 construct: lymphocytes, monocytes and dendritic cells that express TLR7, TLR8 and TLR9; endogenous in cells; host or cells: cryopreserved human PBMCs from healthy donors
T1 sequence (Q9NYK1 27-1049): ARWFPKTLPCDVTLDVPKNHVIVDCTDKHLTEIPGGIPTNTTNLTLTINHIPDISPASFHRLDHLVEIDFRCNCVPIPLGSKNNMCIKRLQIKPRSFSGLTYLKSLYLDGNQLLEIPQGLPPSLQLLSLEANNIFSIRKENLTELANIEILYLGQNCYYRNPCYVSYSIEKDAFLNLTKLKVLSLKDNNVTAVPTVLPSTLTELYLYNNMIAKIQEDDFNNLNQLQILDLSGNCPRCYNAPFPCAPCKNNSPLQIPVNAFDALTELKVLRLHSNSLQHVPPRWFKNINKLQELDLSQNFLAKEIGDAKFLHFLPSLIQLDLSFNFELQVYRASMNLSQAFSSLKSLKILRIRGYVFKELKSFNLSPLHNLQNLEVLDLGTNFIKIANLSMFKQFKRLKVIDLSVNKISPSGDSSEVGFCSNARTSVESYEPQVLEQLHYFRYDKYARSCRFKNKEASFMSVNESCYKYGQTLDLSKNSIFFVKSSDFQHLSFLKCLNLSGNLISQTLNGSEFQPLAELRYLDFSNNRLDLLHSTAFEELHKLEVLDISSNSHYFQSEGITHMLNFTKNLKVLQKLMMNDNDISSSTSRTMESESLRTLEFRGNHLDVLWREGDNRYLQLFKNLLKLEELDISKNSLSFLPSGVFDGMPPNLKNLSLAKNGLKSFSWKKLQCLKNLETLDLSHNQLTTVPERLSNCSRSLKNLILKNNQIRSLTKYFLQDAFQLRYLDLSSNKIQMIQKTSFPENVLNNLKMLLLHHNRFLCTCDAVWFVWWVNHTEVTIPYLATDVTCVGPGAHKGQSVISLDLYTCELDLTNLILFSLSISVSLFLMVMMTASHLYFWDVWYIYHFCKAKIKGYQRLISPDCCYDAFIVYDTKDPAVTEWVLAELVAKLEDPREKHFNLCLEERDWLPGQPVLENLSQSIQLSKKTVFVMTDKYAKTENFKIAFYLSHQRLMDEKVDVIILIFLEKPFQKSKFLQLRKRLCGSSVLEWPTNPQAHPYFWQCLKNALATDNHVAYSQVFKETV
In words: Human PBMC cell-based assay, TLR7 agonist stimulation. To be noted: human PBMCs; TLR7 agonist GS-986 400 nM; 6 hours; cytokines (IL-6 and IFNα) in supernatant; Table 2; read-out: TLR-7 EC50. The text has this: (§1) Human Peripheral Blood Mononuclear Cell (PBMC) Cell-Based Assay
(§2) Human peripheral blood mononuclear cells (PBMCs) consist of lymphocytes, monocytes and dendritic cells that express TLR7, TLR8 and TLR9. These cells respond to TLR7, TLR8 and TLR9 ligand stimulation and produce cytokines and chemokines in vitro and in vivo. Human PBMCs are therefore suitable to be used in a cell-based assay to assess the in vitro potency of a TLR 7, 8, and/or 9 antagonist. The result is expected to be more translatable to the pharmacodynamics response in vivo than cell line-based assays.
(§3) Cryopreserved human PBMCs from healthy donors were thawed and resuspended in RPMI-1640 media with L-glutamine (Corning) supplemented with 10% Fetal Bovine Serum (Hyclone) and 1× Penicillin-Streptomycin (Corning). After counting, the cell density was adjusted to 2 million cells/ml and incubated for 1 hour at 37° C., 5% CO2 for recovery. Following the recovery, the cells were plated by adding 50p per well (100,000 cells) to 384-well cell culture plates (Greiner) containing 250 nl of test antagonists in 100% DMSO per well, in a 10 points dose response in quadruplicates. PBMCs were incubated in the presence of test antagonists for one hour at 37° C., 5% CO2 before being stimulated with a TLR7 or TLR9 agonist. GS-986 (Gilead Sciences) was used as the TLR7 agonist at a final concentration of 400 nM. ODN-2216 (InvivoGen) was used as the TLR9 agonist at a final concentration of 3μM. PBMCs were incubated in the presence of the test antagonist and the TLR7 (or TLR9) agonist for an additional 6 hours at 37° C., 5% CO2. At the end of the incubation, the cell culture plates were centrifuged at 500 g for 5 min, and the cell culture supernatant was collected. The level of cytokines (IL-6 and IFNα) in the supernatant was measured by electrochemiluminescence immunoassays (Mesoscale Discovery) following manufacturer's recommended protocols. The level of cytokine measured was plotted against the test antagonist concentration and fitted to a sigmoidal function to determine the EC50, which are shown below in Table 2.

The target of the next test is T2, TLR9 (Homo sapiens, UniProt Q9NR96).
T2 construct: lymphocytes, monocytes and dendritic cells that express TLR7, TLR8 and TLR9; endogenous in cells; host or cells: cryopreserved human PBMCs from healthy donors
T2 sequence (Q9NR96 26-1032): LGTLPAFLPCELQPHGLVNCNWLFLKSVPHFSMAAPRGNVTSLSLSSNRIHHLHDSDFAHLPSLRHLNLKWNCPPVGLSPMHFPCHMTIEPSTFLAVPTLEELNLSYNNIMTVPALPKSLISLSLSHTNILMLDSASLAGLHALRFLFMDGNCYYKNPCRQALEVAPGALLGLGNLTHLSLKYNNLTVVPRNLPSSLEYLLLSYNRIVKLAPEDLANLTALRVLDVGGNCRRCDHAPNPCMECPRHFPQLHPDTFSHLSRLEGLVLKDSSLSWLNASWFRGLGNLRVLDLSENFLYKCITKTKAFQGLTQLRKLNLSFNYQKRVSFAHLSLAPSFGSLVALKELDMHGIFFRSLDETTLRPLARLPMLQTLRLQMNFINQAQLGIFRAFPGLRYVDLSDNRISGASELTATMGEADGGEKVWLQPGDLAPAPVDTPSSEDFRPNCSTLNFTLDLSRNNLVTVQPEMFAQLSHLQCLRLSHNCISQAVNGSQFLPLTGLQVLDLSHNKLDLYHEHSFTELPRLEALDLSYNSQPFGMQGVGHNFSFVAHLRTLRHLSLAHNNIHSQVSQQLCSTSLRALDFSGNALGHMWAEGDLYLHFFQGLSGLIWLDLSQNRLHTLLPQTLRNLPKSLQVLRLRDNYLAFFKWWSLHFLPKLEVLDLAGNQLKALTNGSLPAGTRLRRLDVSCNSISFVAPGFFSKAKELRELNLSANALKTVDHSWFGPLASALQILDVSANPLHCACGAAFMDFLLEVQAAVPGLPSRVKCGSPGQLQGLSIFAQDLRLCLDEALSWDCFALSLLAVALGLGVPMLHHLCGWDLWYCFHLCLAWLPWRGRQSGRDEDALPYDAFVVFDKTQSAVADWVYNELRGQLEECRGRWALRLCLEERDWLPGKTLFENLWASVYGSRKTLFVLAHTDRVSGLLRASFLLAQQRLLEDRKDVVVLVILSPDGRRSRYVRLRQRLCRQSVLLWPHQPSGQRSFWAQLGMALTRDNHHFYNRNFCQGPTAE
In words: Human PBMC cell-based assay, TLR9 agonist stimulation. To be noted: human PBMCs; TLR9 agonist ODN-2216 3 μM; 6 hours; cytokines (IL-6 and IFNα) in supernatant; Table 2; read-out: TLR-9 EC50.
Source text: as §1, §2, §3

With `CCc1c(-c2ccc(N3CCNCC3)nc2)[nH]c2cc(-c3cc(C)nc(C)c3)ccc12` [Example 12], the EC50 on TLR7 turned out to be 6.2 nM; at TLR9 it was 47.8 nM.

For the origin of these results see patent publication US20240059673A1, “SUBSTITUTED INDOLE COMPOUNDS” (Gilead Sciences, Inc., priority 2020, published 2024).
